# Measurements published in patent US20260217701A1, “SELECTIVE BET INHIBITORS AND USES THEREOF” (Tay Therapeutics Limited, priority 2022, published 2026).
# Values joined by “and” are separate entries in the source; they are usually repeats but may differ in a detail not shown here. Identical values can stand only once.
# Assay: Dog PK study #3 (Compound A PO once daily 5 days, 5/10/20 mg/kg; PK, body weight, hematology)
# Assay type: in vivo, beagle dogs
# Set-up: Plasma Concentration: unit not given here
# Protocol: For the third dog pharmacokinetic study, three solutions of different concentrations of Compound A were prepared in 5% DMSO/15% PEG-400/80% (10% VE-TPGS) as outlined in Table 2E. The Compound A solutions were administered to animals orally (PO) once daily over a five-day period. Body weight was recorded prior to dosing, and detailed clinical observations were made prior to dosing and throughout the study, as needed.
# Animals were divided into Day 1 and Day 5 sample collection groups, with animals in the Day 1 collection group having blood samples taken prior to dosing and at 0.25, 0.5, 1, 2, 4, 8, and 24 hours after dosing on day 1. Animals in the Day 5 collection group having blood samples taken prior to dosing and at 0.25, 0.5, 1, 2, 4, 8, and 24 hours after dosing on day 5. Study groups are outlined in Table 3D.
# Blood samples (~0.3 mL) were collected on day according to the following schedule (0.25, 0.5, 1, 2, 4, 8, and 24 h) after day 5 administration of Compound A by venipuncture of peripheral veins except for the dosing vein, and EDTA-K2 was used as anticoagulant. Within 30 minutes of collection, the samples were centrifuged at approximately 2000 times g-force for 10 minutes at 4° C. to obtain blood plasma. The plasma samples were immediately divided into two aliquots (~75 μL each), transferred to a cryogenic vial, and stored in a freezer at −75±15° C. prior to analysis.
# The concentration of Compound A in the blood plasma was determined through LC-MS as previously described. Briefly, the experiments were conducted on a DMPK-LCMS-14-SMBA Triple Quad 6500 Plus instrument with an ACQUITY UPLC BEH C18 1.7 μm (50×2.1 mm) column. The matrix was male beagle dog plasma potassium (K2) EDTA A gradient of 95% water (0.1% formic acid and 2 mM HCOONH4)/95% acetonitrile (0.1% formic acid and 2 mM HCOONH4) was used as the mobile phase. The sample flow rate was 0.6 mL/min.
# The samples were then vortex-mixed for 10 minutes at 800 rpm and centrifuged for 15 minutes at 3220×g at 4° C. 50 μL aliquots of supernatant were transferred to a clean 96-well plate and centrifuged for 5 minutes at 3220×g at 4° C. Samples were then injected into the LC/MS/MS system for quantitative analysis.
# The gathered data were used for pharmacokinetic calculations using T1/2, CO, AUClast, AUCinf, MRTinf, Cl, Vss, and Number of Points for Regression as parameters.
# The cell composition (hematology) of blood samples was analyzed at day 5. Analyses identified the total number of white blood cells, neutrophils, lymphocytes, monocytes, eosinophils, basophils, and platelets in collected samples.
# [1] = Day 1, 20 mg/kg dose PO, individual animals
# [2] = Day 1, Group 1, individual animals
# [3] = Day 1, Group 2, individual animals
# [4] = Day 1, Group 3, individual animals
# [5] = Day 2, Group 1, individual animals
# [6] = Day 2, Group 2, individual animals
# [7] = Day 2, Group 3, individual animals
# [8] = Day 3, Group 1, individual animals
# [9] = Day 3, Group 2, individual animals
# [10] = Day 3, Group 3, individual animals
# [11] = Day 4, Group 1, individual animals
# [12] = Day 4, Group 2, individual animals
# [13] = Day 4, Group 3, individual animals
# [14] = Day 5, 5 mg/kg dose PO, individual animals
compound,measurement,setting,value
"Cn1cc(-c2ccccc2)c(-c2cn(C)c(=O)c3[nH]c(-c4cnn(C(F)(F)F)c4)cc23)cc1=O [Compound A, 6-methyl-4-(1-methyl-2-oxo-5-phenyl-1,2-dihydropyridin-4-yl)-2-(1-(trifluoromethyl)-1H-pyrazol-4-yl)-1,6-dihydro-7H-pyrrolo[2,3-c]pyridin-7-one]",Cmax,[1],6000 ng/mL
same,MRT0-inf,[1],18.1 h
same,MRT0-last,[1],10.1 h
same,Tlast,[1],24.0 h
same,T½,[1],5.64 h and 11.7 h
same,Vz_F,[1],3.09 L/kg and 2.89 L/kg
same,AUC0-last,"Day 1, 20 mg/kg dose PO, mean",67852 ng·h/mL
same,AUCExtra,"Day 1, 20 mg/kg dose PO, mean",16.1%
same,AUMCExtra,"Day 1, 20 mg/kg dose PO, mean",39.6%
same,Cl_F,"Day 1, 20 mg/kg dose PO, mean",4.59 mL/min/kg
same,Tlast,"Day 1, 20 mg/kg dose PO, mean",24.0 h
same,Vz_F,"Day 1, 20 mg/kg dose PO, mean",2.99 L/kg
same,Animal body weight,[2],8.38 kg and 8.88 kg
same,Clinical Observation,[2],None
same,"Animal Body Weight, Mean","Day 1, Group 1, mean",8.63 kg
same,Animal body weight,[3],8.36 kg and 9.37 kg
same,Clinical Observation,[3],None
same,"Animal Body Weight, Mean","Day 1, Group 2, mean",8.87 kg
same,Animal body weight,[4],9.24 kg and 8.79 kg
same,Clinical Observation,[4],None
same,"Animal Body Weight, Mean","Day 1, Group 3, mean",9.02 kg
same,Animal body weight,[5],8.44 kg and 9.33 kg
same,Clinical Observation,[5],None
same,"Animal Body Weight, Mean","Day 2, Group 1, mean",8.89 kg
same,Animal body weight,[6],9.63 kg and 8.65 kg
same,Clinical Observation,[6],None
same,"Animal Body Weight, Mean","Day 2, Group 2, mean",9.14 kg
same,Animal body weight,[7],9.44 kg and 9.25 kg
same,Clinical Observation,[7],None
same,"Animal Body Weight, Mean","Day 2, Group 3, mean",9.35 kg
same,Animal body weight,[8],8.45 kg and 9.29 kg
same,Clinical Observation,[8],None
same,"Animal Body Weight, Mean","Day 3, Group 1, mean",8.87 kg
same,Animal body weight,[9],9.5 kg and 8.69 kg
same,Clinical Observation,[9],None
same,"Animal Body Weight, Mean","Day 3, Group 2, mean",9.10 kg
same,Animal body weight,[10],9.32 kg and 8.96 kg
same,Clinical Observation,[10],None
same,"Animal Body Weight, Mean","Day 3, Group 3, mean",9.14 kg
same,Animal body weight,[11],8.45 kg and 9.29 kg
same,Clinical Observation,[11],None
same,"Animal Body Weight, Mean","Day 4, Group 1, mean",8.87 kg
same,Animal body weight,[12],9.43 kg and 8.6 kg
same,Clinical Observation,[12],None
same,"Animal Body Weight, Mean","Day 4, Group 2, mean",9.02 kg
same,Animal body weight,[13],9.13 kg and 8.6 kg
same,Clinical Observation,[13],None
same,"Animal Body Weight, Mean","Day 4, Group 3, mean",8.87 kg
same,Plasma Concentration,"Day 5, 5 mg/kg dose PO, time 1, individual animals",1120 and 910
same,Plasma Concentration,"Day 5, 5 mg/kg dose PO, time 1, mean",1015
same,Plasma Concentration,"Day 5, 5 mg/kg dose PO, time 2, individual animals",1270 and 1040
same,Plasma Concentration,"Day 5, 5 mg/kg dose PO, time 2, mean",1155
same,Plasma Concentration,"Day 5, 5 mg/kg dose PO, time 4, individual animals",1180 and 878
same,Plasma Concentration,"Day 5, 5 mg/kg dose PO, time 4, mean",1029
same,Plasma Concentration,"Day 5, 5 mg/kg dose PO, time 8, individual animals",823 and 650
same,Plasma Concentration,"Day 5, 5 mg/kg dose PO, time 8, mean",737
same,Plasma Concentration,"Day 5, 5 mg/kg dose PO, time 24, individual animals",400
same,AUC0-last,[14],11297 ng·h/mL
same,AUC(0-inf),[14],25554 ng·h/mL and 12279 ng·h/mL
same,AUCExtra,[14],30.4% and 8.00%
same,AUMCExtra,[14],65.9% and 26.4%
same,Cl_F,[14],3.26 mL/min/kg and 6.79 mL/min/kg
same,Cmax,[14],1040 ng/mL
same,MRT0-last,[14],8.08 h
same,Tlast,[14],24.0 h
same,T½,[14],13.5 h and 6.42 h
same,Vz_F,[14],3.82 L/kg and 3.77 L/kg
same,AUC0-last,"Day 5, 5 mg/kg dose PO, mean",14544 ng·h/mL
same,AUCExtra,"Day 5, 5 mg/kg dose PO, mean",19.2%
same,AUMCExtra,"Day 5, 5 mg/kg dose PO, mean",46.2%
same,Cl_F,"Day 5, 5 mg/kg dose PO, mean",5.02 mL/min/kg
same,Tlast,"Day 5, 5 mg/kg dose PO, mean",24.0 h
same,Vz_F,"Day 5, 5 mg/kg dose PO, mean",3.79 L/kg
same,Basophils,"Day 5, 5 mg/kg/day (mean), range 0.00-0.19",0.08 10^3/μL
same,Eosinophils,"Day 5, 5 mg/kg/day (mean), range 0.00-1.24",0.38 10^3/μL
same,Monocytes,"Day 5, 5 mg/kg/day (mean), range 0.11-1.08",0.31 10^3/μL
same,Lymphocytes,"Day 5, 5 mg/kg/day (mean), range 1.42-3.76",2.72 10^3/μL
